Among the data in ChEMBL document CHEMBL3046388, “Antifungal and insecticidal activities of daphnodorins A, B and C” (1987) are Activity and mortality values, retold here.

Holding throughout (assay type): functional
The subject of one assay is Rhizoctonia solani. The experiment in a line: Antifungal activity against Rhizoctonia solani inoculated in compound treated Oryza sativa leaves assessed as protective value at 27 degC at 500 ppm by spraying method.
A further assay concerns Blumeria graminis. The experiment in a line: Antifungal activity against Blumeria graminis inoculated in compound treated Triticum aestivum leaves assessed as protective value at 27 degC at 500 ppm by spraying method.
For a further assay, the system named is Tetranychus urticae. As to the kind of experiment: Insecticidal activity against adult and eggs of Tetranychus urticae (two-spotted spider mite) assessed as mortality at 500 ppm sprayed onto organism at 25 to 27 degC measured after 5 days. Conditions: 120 h.
Another assay deals with Spodoptera litura. The experiment in a line: Insecticidal activity against third-instar larvae Spodoptera litura in compound treated cabbage leaves assessed as mortality at 500 ppm at 25 to 27 degC measured after 5 days by leaf dip method. Conditions: foliar, 120 h.
Assay [1] deals with Pyricularia oryzae. The experiment in a line: Antifungal activity against Magnaporthe oryzae inoculated in compound treated Oryza sativa leaves assessed as protective value at 27 degC at 500 ppm by spraying method.
Another assay deals with Nilaparvata lugens. The experiment in a line: Insecticidal activity against third-instar larvae of Nilaparvata lugens (brown planthopper) in compound treated Oriza sativa stem assessed as mortality at 500 ppm at 25 to 27 degC measured after 5 days by stem dip method. The note with it: 120 h.
Another assay deals with Callosobruchus chinensis. As to the kind of experiment: Insecticidal activity against adult Callosobruchus chinensis in compound treated ingenmame leaves assessed as mortality at 500 ppm at 25 to 27 degC measured after 5 days. Conditions: 120 h.
Another assay deals with Botrytis cinerea. As to the kind of experiment: Antifungal activity against Botryotinia fuckeliana inoculated in compound treated Pisum sativum var. arvense POIL. leaves assessed as protective value at 27 degC at 500 ppm by spraying method.
A further assay relates to Puccinia recondita. As to the kind of experiment: Antifungal activity against Puccinia recondita inoculated in compound treated Triticum aestivum leaves assessed as protective value at 27 degC at 500 ppm by spraying method.
For a further assay, the system named is Phytophthora infestans. The experiment in a line: Antifungal activity against Phytophthora infestans inoculated in compound treated Lycopersicon esculentum MILL, leaves assessed as protective value at 27 degC at 500 ppm by spraying method.
For assay [2], the system named is Pyricularia oryzae. As to the kind of experiment: Antifungal activity against Magnaporthe oryzae inoculated in compound treated Oryza sativa leaves assessed as protective value at 27 degC at 50 ppm by spraying method.
In assay [3] the test system is Pyricularia oryzae. As to the kind of experiment: Antifungal activity against Magnaporthe oryzae inoculated in compound treated Oryza sativa leaves assessed as protective value at 27 degC at 200 ppm by spraying method.
Assay [4] relates to Pyricularia oryzae. The experiment in a line: Antifungal activity against Magnaporthe oryzae inoculated in compound treated Oryza sativa leaves assessed as residual effect on leaves at 27 degC at 500 ppm by spraying method.
Assay [5] has as its system Pyricularia oryzae. As to the kind of experiment: Antifungal activity against Magnaporthe oryzae inoculated in compound treated Oryza sativa leaves assessed as protective value at 27 degC at 10 ppm by spraying method.

In general, mortality refers to the percentage killed. Take `O=C(c1c(O)cc(O)cc1O)c1c(-c2ccc(O)cc2)oc2cc(O)c3c(c12)O[C@H](c1ccc(O)cc1)[C@@H](O)C3` [DAPHNODORIN B]: the Activity in the assay with Rhizoctonia solani is listed as 0%; in the assay with Blumeria graminis it was 0%; in the assay with Pyricularia oryzae [1], 79%; in the assay on Botrytis cinerea, 0%; with Puccinia recondita, 0%; in the assay on Phytophthora infestans, 0%. Further, the mortality at 500 ppm with Tetranychus urticae was 45%; with Spodoptera litura it was 30%; in the assay on Nilaparvata lugens, 0%; with Callosobruchus chinensis it was 30%.
Take `O=C1c2c(O)cc(O)cc2O[C@]12c1c(cc(O)c3c1O[C@H](c1ccc(O)cc1)CC3)O[C@H]2c1ccc(O)cc1` [DAPHNODORIN C]: the Activity in the assay with Pyricularia oryzae [2] came out at 69%; with Rhizoctonia solani, 0%; in the assay with Blumeria graminis, 0%; in the assay on Pyricularia oryzae [1] it was 90%; with Pyricularia oryzae [3] it was 89%; with Pyricularia oryzae [4], 40%. Besides, the Activity with Botrytis cinerea was 0%; in the assay with Pyricularia oryzae [5] it was 40%; in the assay on Puccinia recondita, 0%; with Phytophthora infestans, 0%. Also, the mortality at 500 ppm worked out at 11% with Tetranychus urticae, 10% in the assay with Spodoptera litura, 0% in the assay on Nilaparvata lugens and 10% with Callosobruchus chinensis.
Turning to `O=C(c1c(O)cc(O)cc1O)c1c(-c2ccc(O)cc2)oc2cc(O)c3c(c12)O[C@H](c1ccc(O)cc1)CC3` [DAPHNODORIN A], the Activity came to 83% in the assay on Pyricularia oryzae [2]; 0% in the assay with Rhizoctonia solani; 0% in the assay on Blumeria graminis; 95% with Pyricularia oryzae [1]; 93% with Pyricularia oryzae [3]; 48% in the assay with Pyricularia oryzae [4]. The Activity with Botrytis cinerea is 0%; in the assay on Pyricularia oryzae [5], 58%; with Puccinia recondita it was 0%; with Phytophthora infestans it was 0%. Also, the mortality at 500 ppm was 30% in the assay with Tetranychus urticae, 20% in the assay with Spodoptera litura, 10% with Nilaparvata lugens and 0% in the assay with Callosobruchus chinensis.
